Source: ChEMBL document CHEMBL4622970, “Design, Synthesis, and Evaluation of New Quinazolinone Derivatives that Inhibit Bloom Syndrome Protein (BLM) Helicase, Trigger DNA Damage at the Telomere Region, and Synergize with PARP Inhibitors” (J Med Chem, 2020)
Calls of active or inactive are those of the source. The calls are words filed in the database; no cut-off is given here.

Tests used:
[1] = target: T1, RecQ-like DNA helicase BLM (Homo sapiens, UniProt P54132); experiment: Inhibition of His-tagged BLM (642 to 1296 residues) (unknown origin) expressed in Escherichia coli BL21 (DE3) cells assessed as reduction in DNA unwinding activity using 5'-biotin-labeled forked DNA as substrate preincubated for 1 hr followed by substrate addition and measured after 1 hr by electrophoretic mobility shift assay
T1 sequence (P54132 whole entry, the tested form may be a part): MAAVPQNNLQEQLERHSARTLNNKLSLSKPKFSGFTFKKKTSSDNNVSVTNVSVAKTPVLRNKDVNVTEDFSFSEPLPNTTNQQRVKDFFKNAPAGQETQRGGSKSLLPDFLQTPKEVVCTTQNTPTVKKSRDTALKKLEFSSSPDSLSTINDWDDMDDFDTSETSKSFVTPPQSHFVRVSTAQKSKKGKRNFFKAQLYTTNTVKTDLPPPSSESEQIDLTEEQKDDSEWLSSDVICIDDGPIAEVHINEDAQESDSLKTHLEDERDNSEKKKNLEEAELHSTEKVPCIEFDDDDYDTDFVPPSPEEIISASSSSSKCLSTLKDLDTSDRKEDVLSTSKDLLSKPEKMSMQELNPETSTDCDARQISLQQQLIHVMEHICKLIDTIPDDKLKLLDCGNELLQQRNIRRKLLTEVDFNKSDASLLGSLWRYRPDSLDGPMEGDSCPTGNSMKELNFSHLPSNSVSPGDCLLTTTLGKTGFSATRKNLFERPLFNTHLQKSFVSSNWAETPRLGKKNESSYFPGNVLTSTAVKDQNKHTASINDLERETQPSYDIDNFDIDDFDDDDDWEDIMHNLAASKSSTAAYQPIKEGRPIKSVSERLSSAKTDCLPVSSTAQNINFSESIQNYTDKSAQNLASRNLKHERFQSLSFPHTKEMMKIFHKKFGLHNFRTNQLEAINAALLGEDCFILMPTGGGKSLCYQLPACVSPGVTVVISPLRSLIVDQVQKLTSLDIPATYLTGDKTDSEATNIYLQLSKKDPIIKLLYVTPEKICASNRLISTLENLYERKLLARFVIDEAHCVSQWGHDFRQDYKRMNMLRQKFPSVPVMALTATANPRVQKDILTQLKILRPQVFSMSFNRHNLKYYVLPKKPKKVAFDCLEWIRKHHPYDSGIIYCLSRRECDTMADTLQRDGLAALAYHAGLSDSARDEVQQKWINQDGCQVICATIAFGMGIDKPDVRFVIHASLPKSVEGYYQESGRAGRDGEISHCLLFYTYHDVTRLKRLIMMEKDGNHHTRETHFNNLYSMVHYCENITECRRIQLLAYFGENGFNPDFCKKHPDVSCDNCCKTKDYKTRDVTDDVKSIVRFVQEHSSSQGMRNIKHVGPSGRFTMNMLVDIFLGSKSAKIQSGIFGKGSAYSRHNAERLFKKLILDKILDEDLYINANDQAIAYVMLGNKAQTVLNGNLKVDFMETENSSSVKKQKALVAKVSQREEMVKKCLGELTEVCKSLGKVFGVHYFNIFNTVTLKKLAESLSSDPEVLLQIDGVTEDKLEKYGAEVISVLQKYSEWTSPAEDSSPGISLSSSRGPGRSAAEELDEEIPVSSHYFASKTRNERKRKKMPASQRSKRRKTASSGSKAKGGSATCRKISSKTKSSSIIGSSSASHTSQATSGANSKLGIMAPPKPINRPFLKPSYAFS

[2] = target: T1, RecQ-like DNA helicase BLM; experiment: Binding affinity to His-tagged BLM (642 to 1296 residues) (unknown origin) expressed in Escherichia coli BL21 (DE3) cells assessed as inhibition of protein interaction with 5'-biotin-labeled forked DNA measured after 1 hr by ELISA
[3] = target: T1, RecQ-like DNA helicase BLM; experiment: Binding affinity to wild-type His-tagged BLM (642 to 1296 residues) (unknown origin) expressed in Escherichia coli BL21 (DE3) cells by isothermal calorimetric titration assay
[4] = target: RecQ-like DNA helicase BLM (Homo sapiens, UniProt P54132, H996A); experiment: Binding affinity to His-tagged BLM H996A mutant (unknown origin) expressed in Escherichia coli BL21 (DE3) cells by isothermal calorimetric titration assay
Sequence of RecQ-like DNA helicase BLM (Homo sapiens, UniProt P54132, H996A) (P54132 whole entry H996A): as the sequence (P54132 whole entry, the tested form may be a part) above, with H996A counted along it

HCT-116 [5] = experiment: Cytotoxicity against human HCT116 cells by MTT assay; format: functional, cell-based
[6] = target: RecQ-like DNA helicase BLM (Homo sapiens, UniProt P54132, I1168A); experiment: Binding affinity to His-tagged BLM I1168A mutant (unknown origin) expressed in Escherichia coli BL21 (DE3) cells by isothermal calorimetric titration assay
Sequence of RecQ-like DNA helicase BLM (Homo sapiens, UniProt P54132, I1168A) (P54132 whole entry I1168A): as the sequence (P54132 whole entry, the tested form may be a part) above, with I1168A counted along it

[7] = target: T1, RecQ-like DNA helicase BLM; experiment: Inhibition of BLM in human HCT116 cells assessed as down regulation of HRR level at 0.5 uM measured after 24 hrs by luciferase reporter gene assay; format: cell-based; conditions: HCT-116
[8] = target: T1, RecQ-like DNA helicase BLM; experiment: Inhibition of BLM in human HCT116 cells assessed as increase in gamma-H2AX level at 2 uM measured after 24 hrs by Western blot analysis; format: cell-based; conditions: HCT-116
[9] = target: T1, RecQ-like DNA helicase BLM; experiment: Binding affinity to BLM in human HCT116 cells cotransfected with DSB model and I-SceI plasmid assessed as reduction in recruitment of protein to DSB site in DNA at 2 uM measured after 24 hrs by chromatin immunoprecipitation assay; format: cell-based; conditions: HCT-116
[10] = target: T1, RecQ-like DNA helicase BLM; experiment: Binding affinity to BLM in human HCT116 cells cotransfected with DSB model and I-SceI plasmid assessed as reduction in recruitment of protein to DNA region distant from DSB site at 2 uM measured after 24 hrs by chromatin immunoprecipitation assay; format: cell-based; conditions: HCT-116
[11] = target: T1, RecQ-like DNA helicase BLM; experiment: Inhibition of BLM in human HCT116 cells assessed as potentiation of niraparib-induced cytotoxicity at 1 to 2 uM measured after 48 hrs by MTT assay relative to niraparib alone; format: cell-based; conditions: HCT-116
[12] = target: T1, RecQ-like DNA helicase BLM; experiment: Inhibition of BLM in human HCT116 cells assessed as potentiation of olaparib-induced cytotoxicity at 1 to 2 uM measured after 48 hrs by MTT assay relative to olaparib alone; format: cell-based; conditions: HCT-116
[13] = target: T1, RecQ-like DNA helicase BLM; experiment: Inhibition of BLM in human HCT116 cells assessed as potentiation of niraparib-induced cytotoxicity by measuring combination index at 1 to 2 uM measured after 48 hrs by MTT assay; format: cell-based; conditions: HCT-116
[14] = target: T1, RecQ-like DNA helicase BLM; experiment: Inhibition of BLM in human HCT116 cells assessed as potentiation of olaparib-induced cytotoxicity by measuring combination index at 1 to 2 uM measured after 48 hrs by MTT assay; format: cell-based; conditions: HCT-116
[15] = target: T1, RecQ-like DNA helicase BLM; experiment: Inhibition of BLM in human HCT116 cells assessed as potentiation of cisplatin-induced cytotoxicity by measuring combination index at 1 to 2 uM measured after 48 hrs by MTT assay; format: cell-based; conditions: HCT-116
[16] = target: T1, RecQ-like DNA helicase BLM; experiment: Inhibition of BLM in human HCT116 cells assessed as increase in gamma-H2AX foci at 1 to 4 uM measured after 24 hrs by DAPI staining based immunofluorescence assay; format: cell-based; conditions: HCT-116
[17] = target: T1, RecQ-like DNA helicase BLM; experiment: Inhibition of BLM in human HCT116 cells assessed as increase in gamma-H2AX-TRF2 foci colocalization mediated telomere dysfunction-induced foci formation measured after 24 hrs by DAPI staining based immunofluorescence assay; format: cell-based; conditions: HCT-116
[18] = target: T1, RecQ-like DNA helicase BLM; experiment: Inhibition of BLM in human HCT116 cells assessed as increase in gamma-H2AX-TRF2 foci colocalization mediated telomere dysfunction-induced foci formation at 1 to 4 uM measured after 24 hrs by DAPI staining based immunofluorescence assay relative to total gamma-H2AX foci; format: cell-based; conditions: HCT-116
[19] = target: T1, RecQ-like DNA helicase BLM; experiment: Inhibition of BLM in human HCT116 cells assessed as increase in gamma-H2AX-TRF2 foci colocalization mediated telomere dysfunction-induced foci formation at 1 uM measured after 24 hrs in presence of […] inhibitor niraparib by DAPI staining based immunofluorescence assay; format: cell-based; conditions: HCT-116
[20] = target: T1, RecQ-like DNA helicase BLM; experiment: Inhibition of BLM in human HCT116 cells assessed as potentiation of BIBR1532-induced cytotoxicity by measuring combination index at 1 to 2 uM measured after 48 hrs by MTT assay; format: cell-based; conditions: HCT-116
[21] = target: T1, RecQ-like DNA helicase BLM; experiment: Inhibition of BLM in human HCT116 cells assessed as upregulation of ATM phosphorylation up to 4 uM by Western blot analysis; format: cell-based; conditions: HCT-116
[22] = target: T1, RecQ-like DNA helicase BLM; experiment: Inhibition of BLM in human HCT116 cells assessed as upregulation of ATR phosphorylation up to 4 uM by Western blot analysis; format: cell-based; conditions: HCT-116
[23] = target: T1, RecQ-like DNA helicase BLM; experiment: Inhibition of BLM in human HCT116 cells assessed as upregulation of CHK1 phosphorylation by Western blot analysis; format: cell-based; conditions: HCT-116
[24] = target: T1, RecQ-like DNA helicase BLM; experiment: Inhibition of BLM in human HCT116 cells assessed as upregulation of CHK2 phosphorylation by Western blot analysis; format: cell-based; conditions: HCT-116
[25] = target: T1, RecQ-like DNA helicase BLM; experiment: Inhibition of BLM in human HCT116 cells assessed as induction of telomere end loss at 4 uM by fluorescent in situ hybridization; format: cell-based; conditions: HCT-116
HCT-116 [26] = experiment: Induction of apoptosis in human HCT116 cells measured after 48 hrs by Annexin V-FITC/propidium iodide staining based flow cytometry; format: functional, cell-based
HCT-116 [27] = experiment: Induction of apoptosis in human HCT116 cells assessed as apoptotic cell population at 4 uM measured after 48 hrs by Annexin V-FITC/propidium iodide staining based flow cytometry (reference value: 17.4%); format: functional
HCT-116 [28] = experiment: Induction of apoptosis in human HCT116 cells assessed as upregulation of cleaved caspase-3 expression up to 4 uM measured after 48 hrs by Western blot analysis; format: functional, cell-based
HCT-116 [29] = experiment: Induction of apoptosis in human HCT116 cells assessed as upregulation of cleaved caspase-7 expression up to 4 uM measured after 48 hrs by Western blot analysis; format: functional, cell-based
HCT-116 [30] = experiment: Induction of apoptosis in human HCT116 cells assessed as upregulation of cleaved PARP expression up to 4 uM measured after 48 hrs by Western blot analysis; format: functional, cell-based
HCT-116 [31] = experiment: Antiproliferative activity against wild-type human HCT116 cells assessed as inhibition of cell proliferation by real-time cellular analysis; format: functional, cell-based
HCT-116 [32] = experiment: Antiproliferative activity against human HCT116 cells harboring siBLM assessed as inhibition of cell proliferation at 1 to 2 uM by real-time cellular analysis; format: functional, cell-based

IC50 [1]: 800 nM
IC50 [2]: 8700 nM
Kd [3]: 760 nM
Kd [4]: 1400 nM
Kd [6]: 6540 nM
inhibition [7]: Active
inhibition [8]: Active
Activity [9]: Active
Activity [10]: Active
inhibition [16]: Active
inhibition [17]: Dose-dependent effect
inhibition [18]: > 70%
inhibition [19]: Active
inhibition [21]: Active
inhibition [22]: Active
inhibition [23]: Dose-dependent effect
inhibition [24]: Dose-dependent effect
inhibition [25]: Active
SMILES: CCN(CC)CCCNc1cc2nc(/C=C/c3ccc(C(C)C)cc3)n(CCCl)c(=O)c2cc1F
Activity (HCT-116 [5]): Active
fold change (FC) [11]: 2 to 4
fold change (FC) [12]: 2 to 4
CI [13]: 0.4 to 0.8
CI [14]: 0.4 to 0.8
CI [15]: 0.6 to 0.8
CI [20]: 0.5 to 0.8
Activity (HCT-116 [26]): Dose-dependent effect
Activity (HCT-116 [27]): 76%
Activity (HCT-116 [28]): Active
Activity (HCT-116 [29]): Active
Activity (HCT-116 [30]): Active
inhibition (HCT-116 [31]): Dose-dependent effect
inhibition (HCT-116 [32]): inactive
